The values that follow come from US8765961B2, “Near infrared fluorescent imaging agent” (FUJIFILM Corporation, priority 2009, dated 2014).

Each structure is given as a SMILES string.

This series concerns the target T1, albumin (Bos taurus, UniProt P02769).
T1 construct: The test substance was dissolved to 5 μg/mL in calf serum; from tissue; host or cells: calf serum
Nature of the series: Serum protein binding rate test by ultracentrifugation, albumin fraction. Conditions: 5 μg/mL in calf serum, 37° C., density gradient centrifugation, HPLC. The format is in vitro ADME. As to the method: The test substance was dissolved to 5 μg/mL in calf serum, vibrated for 20 minutes at 37° C., and subjected to density gradient centrifugation (1,000,000×g, 24 h) using NaBr. Following the centrifugation, the dye concentrations in the albumin fraction, lipoprotein fraction, and the remaining fractions were quantified by HPLC.

T1 sequence (P02769 25-607): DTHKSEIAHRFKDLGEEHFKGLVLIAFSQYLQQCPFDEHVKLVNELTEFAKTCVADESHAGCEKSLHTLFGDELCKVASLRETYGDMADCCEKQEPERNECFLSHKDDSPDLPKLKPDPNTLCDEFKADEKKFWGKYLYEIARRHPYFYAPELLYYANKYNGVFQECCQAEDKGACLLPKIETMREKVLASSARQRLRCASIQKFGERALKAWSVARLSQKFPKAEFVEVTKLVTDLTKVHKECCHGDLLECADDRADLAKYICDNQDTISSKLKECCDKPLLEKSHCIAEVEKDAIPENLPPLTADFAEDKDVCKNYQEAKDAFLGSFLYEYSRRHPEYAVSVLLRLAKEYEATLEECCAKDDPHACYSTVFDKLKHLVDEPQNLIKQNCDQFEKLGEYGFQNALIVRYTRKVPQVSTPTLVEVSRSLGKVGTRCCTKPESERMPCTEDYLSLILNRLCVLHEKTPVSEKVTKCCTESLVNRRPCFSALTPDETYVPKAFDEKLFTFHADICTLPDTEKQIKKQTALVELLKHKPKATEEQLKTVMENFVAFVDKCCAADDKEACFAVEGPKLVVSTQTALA

For `CC1(C)C(/C=C/C=C/C=C/C=C2\N(CCCCS(=O)(=O)O)c3ccc4ccccc4c3C2(C)C)=[N+](CCCCS(=O)(=O)[O-])c2ccc3ccccc3c21` [ICG, indocyanine green], the “Protein binding rate (%) Albumin” value amounted to 18%.
